Measurements reported in US8398959B2, “Compositions and methods for imparting a sunless tan with functionalized adjuvants” (Conopco, Inc., priority 2010, dated 2013).
“Also recorded” adds a separate entry of the source.

Experiments:
[1] = Enhancement activity of adjuvant in DHA/glycine solution, color change by colorimeter; details: adjuvant 0.5-2 wt.% in solution with DHA and glycine
From the text: A control solution was made as follows: Mixing vials were charged with 2.5 weight percent glycine, 2.5 percent by weight DHA and 0.2 M citric/citrate buffer solution to produce the desired control solution, pH 5.6. The balance of the control solutions was water. Compositions consistent with the invention were made as follows: about 0.5 to 2.0 weight percent adjuvant, 2.5 weight percent DHA and 2.5 weight percent glycine were combined, resulting in compositions consistent with this invention with water as the balance. The initial pH of the resulting adjuvant comprising solution was measured and adjusted with NaOH or citric acid, if necessary, to yield an adjuvant comprising solution, pH of about 5.6. The solutions were placed in a 35° C. oven and color change was assessed visually (by taking photos) and by measuring L*a*b* values utilizing a conventional colorimeter. L*a*b* values of the solutions were measured and assessed as set forth below.
Enhancement activity of pyrrole-2-carboxylic acid in solution was carried out on the solutions described in Table 2 and the color of the reaction system was detected and assessed with a colorimeter.
Delta L* was used to characterize color change whereby the larger Delta L* value reflects darker coloring. […] Pyrrole-2-carboxylic acid, therefore, is believed to catalyze the DHA/glycine Maillard reaction.

[2] = Enhancement activity of adjuvant in DHA composition on artificial skin (VitroSkin), color by colorimeter; details: for color enhancement activity on artificial skin (in words): adjuvant 0.5-2 wt.% in composition with DHA; for color quality (delta a*/delta b*, visual examination) in words: composition with DHA on artificial skin
Description: General procedure for in vitro testing: DHA, 2.5 weight percent, and 0.5 to 2.0 weight percent adjuvant were formulated into the base (as described in Table 1). About 20 mg of resulting composition was applied to VitroSkin® made available from IMS Company and applied in a circular pattern having a diameter around 2.4 cm. The artificial skin was pre-hydrated under 50% RH for 24 hours before use, and the skin was kept at a temperature of 35° C. under constant relative humidity (RH, 50%). Color development was evaluated with a colorimeter as defined below.
Enhancement activity of pyrrole-2-carboxylic acid was carried out on artificial skin when formulated in a ready-to-use composition with ingredients as described in Table 4 and color was detected and assessed with a colorimeter.

Structure (SMILES) | DHA enhancement activity / color enhancement in solution (in words) [1] | color enhancement activity on artificial skin (in words) [2] | color quality (delta a*/delta b*, visual examination) in words [2] | DHA enhancement activity / color enhancement in solution (in words) ([1]; listed as 1-H-indole-2-carboxylic acid)
Cn1cccc1C(=O)O [1-methyl-2-pyrrolecarboxylic acid] | excellent DHA enhancement activity | color enhancement activity; also recorded: excellent DHA enhancer | more natural color via visual examination; also recorded: better than that of the control at all concentrations tested | 
O=C(O)c1cc2ccccc2[nH]1 [1H-indole-2-carboxylic acid] | excellent color enhancement |  |  | excellent coloring properties
CC(=O)c1cccn1C [2-acetyl-1-methylpyrrole] | surprisingly good color enhancement | color enhancement of artificial skin |  | 
CC(=O)c1ccco1 [2-acetylfuran] |  | color enhancement of artificial skin |  | 
CC(=O)c1ccc[nH]1 [2-acetylpyrrole] | surprisingly good color enhancement | color enhancement of artificial skin |  | 
O=C(O)c1ccco1 [2-furoic acid] |  | color enhancement of artificial skin |  | 
O=C(CO)CO [DHA, 1,3-dihydroxy-2-propanone, reference compound] |  |  | yellowish | 
COC(=O)c1ccc[nH]1 [methyl-2-pyrrole carboxylate] | surprisingly good color enhancement |  |  | 
O=C(O)c1ccc[nH]1 [pyrrole-2-carboxylic acid] | significantly enhanced DHA activity at all concentrations tested | DHA color enhancement activity at all tested concentrations | longer lasting and more natural color | 
